Measured values published in patent publication US10786508B2, “Substituted imidazo[1,5-A]-pyrimidines and their use in the treatment of medical disorders” (Lysosomal Therapeutics Inc., priority 2014, dated 2020).
In brackets after ≈: the same amount, converted by molar mass.

How the values were obtained:
[1] = target: T1, glucocerebrosidase (Gcase) (Homo sapiens, UniProt P04062); assay: Glucocerebrosidase (Gcase) activation assay, 4-methylumbelliferyl-beta-D-glucopyranoside substrate, with saposin C; assay type: biochemical; details: 10 nM GCase, 100 nM saposin C, pH 4.7; for activation at 0.1 µM: 0.1 μM test compound, read-out: Percent Gease Activation 0.1 μM Test Compound; for activation at 1 µM: 1 μM test compound, read-out: Percent Gease Activation 1 μM Test Compound
T1 construct: micellar solution containing 10 nM GCase and 100 nM saposin C
T1 sequence (P04062 40-536): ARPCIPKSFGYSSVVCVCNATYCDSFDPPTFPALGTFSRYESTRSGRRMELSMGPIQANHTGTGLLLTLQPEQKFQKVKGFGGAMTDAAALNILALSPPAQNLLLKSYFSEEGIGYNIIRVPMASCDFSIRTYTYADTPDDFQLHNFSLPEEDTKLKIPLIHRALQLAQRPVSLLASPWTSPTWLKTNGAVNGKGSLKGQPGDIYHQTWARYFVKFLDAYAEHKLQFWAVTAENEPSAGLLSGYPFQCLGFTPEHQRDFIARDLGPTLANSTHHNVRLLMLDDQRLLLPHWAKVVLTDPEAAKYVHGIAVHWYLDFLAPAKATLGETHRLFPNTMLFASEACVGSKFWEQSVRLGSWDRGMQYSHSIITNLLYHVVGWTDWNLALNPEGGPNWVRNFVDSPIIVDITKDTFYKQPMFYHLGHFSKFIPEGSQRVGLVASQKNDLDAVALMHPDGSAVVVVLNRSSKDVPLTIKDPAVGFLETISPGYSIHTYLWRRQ
Method: The ability of exemplary compounds to activate glucocerebrosidase (Gcase) was measured.
A 484 μL aliquot of a 1.0 mg/mL solution of phosphatidylserine (PS) (Sigma P7769) in chloroform was evaporated under a stream of nitrogen for 1 hour. The lipid film was dissolved over 4 minutes of vigorous vortexing in 40 mL of 176 mM K2HPO4/50 mM citric acid (pH 4.7) containing 7.5 μL of triton X-100, resulting in a mixed micellar preparation with a composition of 0.32 mM triton and 0.37 mol % PS. 4-Methylumbelliferyl-beta-D-glucopyranoside (ACROS-337025000) was dissolved in the micellar solution to a final concentration of 2 mM for use as the reaction substrate.
Test compounds were diluted to the desired concentrations with dimethylsulfoxide (DMSO) from 10 mM stocks, and 0.41 μL of the DMSO compound mixture was added to 100 μL of micellar solution containing 10 nM GCase and 100 nM saposin C (Enzo ALX-201-262-C050). Pre-incubation was allowed to occur for 30 minutes at room temperature, after which the reaction was initiated by combining 25 μL of substrate solution with 25 μL of compound/GCase/saposin mixture. The reaction proceeded for 15 minutes at room temperature and was stopped by adding 150 μL of 1M glycine, pH 12.5. The endpoint of the reaction was monitored by measuring fluorescence intensity (excitation: 365 nm; emission: 440 nm) on a SpectraMax i3 instrument (Molecular Devices). Test compounds were screened at 1.0 and 0.1 μM final concentration, and subsequent 8-point dose response curves were obtained using 3-fold dilutions from a maximum final concentration of 5 μM.
For experiments in which the test compound was used at a concentration of 1.0 μM, the symbol “+” indicates less than 30% Gcase activation; the symbol “++” indicates Gcase activation in the range of 30% up to 60%; and the symbol “+++” indicates Gcase activation greater than 60%. For experiments in which the test compound was used at a concentration of 0.1 μM, the symbol “*” indicates less than 10% Gcase activation; the symbol “**” indicates Gcase activation in the range of 10% up to 20%; and the symbol “***” indicates greater than 20% Gcase activation.

[2] = Compound solubility in water; assay type: physicochemical

SMILES | activation at 0.1 µM [1] | activation at 1 µM [1] | solubility [2]
CCCCCOC1CCC(NC(=O)c2ncn3c(C(C)C)cc(C)nc23)CC1 (stereo not drawn) [III-44] | < 10% | 30 to 60% | 30.9 µg/mL (≈ 79.9 µM)
CCCCCCO[C@H]1CC[C@H](NC(=O)c2ncn3c(C)cc(C)nc23)C1 [III-47] | < 10% | > 60% | 30.6 µg/mL (≈ 85.4 µM)
CCCOc1cccc(C(C)(C)NC(=O)c2ncn3c(C4CC4)cc(COC)nc23)c1 [III-50] | 10 to 20% | > 60% | 31.3 µg/mL (≈ 74.1 µM)
CCCOc1cccc(C(C)(C)NC(=O)c2ncn3c(COC)cc(C4CC4)nc23)c1 [III-51] | > 20% | > 60% | 10.5 µg/mL (≈ 24.9 µM)
CCCOc1cccc(C(C)(C)NC(=O)c2ncn3c(COC)c(OC)c(C)nc23)c1 [III-53] | < 10% | 30 to 60% | 52.9 µg/mL (≈ 124 µM)
COCc1cc(C2CC2)nc2c(C(=O)NC(C)(C)c3cccc(OC4CC4)c3)ncn12 [III-56] | 10 to 20% | > 60% | 14.4 µg/mL (≈ 34.2 µM)
COCc1cc(C(C)C)n2cnc(C(=O)NC(C)(C)c3cccc(OC4CC4)c3)c2n1 [III-57] | 10 to 20% | > 60% | 38.5 µg/mL (≈ 91.1 µM)
CCOCc1cccc(C(C)(C)NC(=O)c2ncn3c(C(C)C)cc(COC)nc23)c1 [III-60] | < 10% | < 30% | 31.2 µg/mL (≈ 73.5 µM)
CCOCc1cccc(C(C)(C)NC(=O)c2ncn3c(COC)cc(C(C)C)nc23)c1 [III-61] | < 10% | 30 to 60% | 20.6 µg/mL (≈ 48.5 µM)
CO[C@H]1CC[C@H](C(C)(C)NC(=O)c2ncn3c(C)cc(C)nc23)CC1 [III-62] | < 10% | < 30% | 27 µg/mL (≈ 78.4 µM)
Cc1cc(C)n2cnc(C(=O)Nc3cccc4c3CCC4)c2n1 [III-65] | 10 to 20% | > 60% | 0.9 µg/mL (≈ 2.94 µM)
Cc1cc(C)n2cnc(C(=O)Nc3ccc(-c4ccco4)nc3)c2n1 [III-66] | < 10% | < 30% | < 0.01 µg/mL
Cc1cc(C)n2cnc(C(=O)NC3Cc4ccccc4C3)c2n1 [III-67] | < 10% | < 30% | 18 µg/mL (≈ 58.8 µM)
Cc1cc(C)n2cnc(C(=O)NC3CCc4ccccc4C3)c2n1 (stereo not drawn) [III-69] | < 10% | 30 to 60% | 16.6 µg/mL (≈ 51.8 µM)
CCCCCO[C@H]1CC[C@H](NC(=O)c2ncn3c(C)cc(C)nc23)CC1 [III-70] | 10 to 20% | 30 to 60% | 19.6 µg/mL (≈ 54.7 µM)
Cc1cc(C)n2cnc(C(=O)NC3CCCc4ccccc43)c2n1 (stereo not drawn) [III-71] | < 10% | 30 to 60% | 70.7 µg/mL (≈ 221 µM)
COCc1cc(C2CC2)n2cnc(C(=O)NC3(C)CCOc4c(F)ccc(F)c43)c2n1 (stereo not drawn) [III-72] | < 10% | 30 to 60% | 23.6 µg/mL (≈ 55.1 µM)
Cc1cc(C)n2cnc(C(=O)N[C@@H](C)c3ccccc3F)c2n1 [III-74] | < 10% | < 30% | 37.3 µg/mL (≈ 119 µM)
Cc1cc(C)n2cnc(C(=O)N[C@@H](C)c3cccc(Cl)c3)c2n1 [III-77] | < 10% | 30 to 60% | 26 µg/mL (≈ 79.1 µM)
COc1ccc(F)cc1C(C)NC(=O)c1ncn2c(C)cc(C)nc12 (stereo not drawn) [III-79] | < 10% | 30 to 60% | 32 µg/mL (≈ 93.5 µM)
CCOc1ccc(C(C)NC(=O)c2ncn3c(C)cc(C)nc23)cc1 (stereo not drawn) [III-80] | < 10% | < 30% | 25.9 µg/mL (≈ 76.5 µM)
CCC(NC(=O)c1ncn2c(C)cc(C)nc12)c1cccc(Cl)c1 (stereo not drawn) [III-81] | 10 to 20% | > 60% | 20.3 µg/mL (≈ 59.2 µM)
Cc1cc(C)n2cnc(C(=O)NC(C)(C)c3cccc(Cl)c3)c2n1 [III-82] | < 10% | > 60% | 14.8 µg/mL (≈ 43.2 µM)
Cc1cc(C)n2cnc(C(=O)N[C@H](C)c3ccc(Cl)cc3)c2n1 [III-83] | < 10% | 30 to 60% | 16.5 µg/mL (≈ 50.2 µM)

Now from value to compound:

activation at 0.1 µM [1] | activation at 1 µM [1] | solubility [2] | SMILES
> 20% | > 60% | 1 µg/mL (≈ 2.99 µM) | Cc1cc(C(C)C)n2cnc(C(=O)Nc3cccc4c3CCC4)c2n1 [III-45]
10 to 20% | > 60% | 4.9 µg/mL (≈ 12.3 µM) | Cc1cc(C)n2cnc(C(=O)N[C@H]3CC[C@H](OC4CCC(C)(C)CC4)CC3)c2n1 [III-46]
10 to 20% | > 60% | 37.6 µg/mL (≈ 88.2 µM) | CCCOc1cccc(C(C)(C)NC(=O)c2ncn3c(COC)cc(COC)nc23)c1 [III-52]
< 10% | < 30% | 23.4 µg/mL (≈ 60.1 µM) | COCc1cc(C2CC2)n2cnc(C(=O)NC(C)(C)c3cccc(C#N)c3)c2n1 [III-54]
10 to 20% | > 60% | 26.3 µg/mL (≈ 62.5 µM) | COCc1cc(C2CC2)n2cnc(C(=O)NC(C)(C)c3cccc(OC4CC4)c3)c2n1 [III-55]
10 to 20% | > 60% | 28.9 µg/mL (≈ 68.4 µM) | COCc1cc(C(C)C)nc2c(C(=O)NC(C)(C)c3cccc(OC4CC4)c3)ncn12 [III-58]
< 10% | 30 to 60% | 26.3 µg/mL (≈ 62.2 µM) | CCOCc1cccc(C(C)(C)NC(=O)c2ncn3c(COC)cc(C4CC4)nc23)c1 [III-59]
< 10% | 30 to 60% | 36.2 µg/mL (≈ 105 µM) | CO[C@H]1CC[C@@H](C(C)(C)NC(=O)c2ncn3c(C)cc(C)nc23)CC1 [III-63]
< 10% | 30 to 60% | 0.6 µg/mL (≈ 1.72 µM) | Cc1cc(C)n2cnc(C(=O)Nc3ccc(-c4cscn4)cc3)c2n1 [III-64]
< 10% | < 30% | 21 µg/mL (≈ 68.5 µM) | Cc1cc(C)n2cnc(C(=O)NC3CCc4ccccc43)c2n1 (stereo not drawn) [III-68]
< 10% | < 30% | 31.6 µg/mL (≈ 74.8 µM) | CCOCc1cccc(C(C)(C)NC(=O)c2ncn3c(C4CC4)cc(COC)nc23)c1 [III-73]
< 10% | 30 to 60% | 22.6 µg/mL (≈ 69.7 µM) | COc1ccccc1[C@H](C)NC(=O)c1ncn2c(C)cc(C)nc12 [III-75]
< 10% | 30 to 60% | 23 µg/mL (≈ 70.9 µM) | COc1ccccc1[C@@H](C)NC(=O)c1ncn2c(C)cc(C)nc12 [III-76]
< 10% | 30 to 60% | 39.5 µg/mL (≈ 121 µM) | CCC(NC(=O)c1ncn2c(C)cc(C)nc12)c1ccc(F)cc1 (stereo not drawn) [III-78]
> 20% | > 60% | 0.2 µg/mL (≈ 0.54 µM) | CCCCO[C@H]1C[C@H]2CC[C@@H](C1)[C@H]2NC(=O)c1ncn2c(C)cc(C)nc12 [III-84]
< 10% | > 60% | 13.1 µg/mL (≈ 35.4 µM) | CCCCO[C@H]1[C@@H]2CC[C@H]1C[C@@H](NC(=O)c1ncn3c(C)cc(C)nc13)C2 [III-85]
10 to 20% | > 60% | 14.6 µg/mL (≈ 39.4 µM) | CCCCO[C@@H]1[C@@H]2CC[C@H]1C[C@@H](NC(=O)c1ncn3c(C)cc(C)nc13)C2 [III-86]
